Each compound was assayed against GLP-1 Receptor (Homo sapiens, UniProt P43220) (assay: GLP-1R agonist cAMP stimulation assay (HEK293/GLP1R/CRE-LUC cells, cAMP dynamic 2 Kit)). Conditions: HEK293/CRE-Luc cell line stably expressing the GLP-1 Receptor, 30 min at 37° C.
Type: cell-based
Method in brief: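 cAMP measured by HTRF competition (d2-labelled cAMP with cryptate antibody, 1 h, room temperature, protected from light). Before that, GLP1R/CRE-Luc HEK293 cells (1000/well) were exposed for 30 min at 37 °C to half-log compound dilutions in DPBS containing IBMX 0.5 mM and BSA 0.1%.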

Sequence of GLP-1 Receptor (P43220 24-463, species assumed): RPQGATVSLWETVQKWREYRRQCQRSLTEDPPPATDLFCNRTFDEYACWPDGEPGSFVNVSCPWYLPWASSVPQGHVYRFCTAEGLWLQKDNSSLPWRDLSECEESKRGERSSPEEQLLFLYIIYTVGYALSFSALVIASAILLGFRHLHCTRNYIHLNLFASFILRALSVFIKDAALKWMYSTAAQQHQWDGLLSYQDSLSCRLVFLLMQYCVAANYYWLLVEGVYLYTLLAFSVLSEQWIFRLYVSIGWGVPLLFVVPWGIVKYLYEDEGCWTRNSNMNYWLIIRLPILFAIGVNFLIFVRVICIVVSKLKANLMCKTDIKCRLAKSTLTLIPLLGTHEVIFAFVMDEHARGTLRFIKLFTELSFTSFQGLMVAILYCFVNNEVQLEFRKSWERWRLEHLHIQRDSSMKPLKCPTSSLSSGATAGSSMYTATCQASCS

SMILES | EC50
CC1(c2ccc(Cl)cc2F)Oc2cccc(C3CCN(Cc4nc5cc(-c6noc(=O)[nH]6)c(F)cc5n4C[C@@H]4CCO4)CC3)c2O1 (stereo partly drawn) [Compound 222a, 3-[2-({4-[2-(4-chloro-2-fluorophenyl)-2-methyl-2H-1,3-benzodioxol-4-yl]piperidin-1-yl}methyl)-6-fluoro-1-{[(2S)-oxetan-2-yl]methyl}-1H-1,3-benzodiazol-5-yl]-4,5-dihydro-1,2,4-oxadiazol-5-one] | 0.55 nM
N#Cc1nnc(-c2cc3nc(CN4CCC(c5cccc(OCc6ccc(Cl)cc6F)n5)CC4)n(C[C@@H]4CCO4)c3cn2)[nH]1 [Compound 484a, 5-{2-[(4-{6-[(4-chloro-2-fluorophenyl)methoxy]pyridin-2-yl}piperidin-1-yl)methyl]-3-{[(2S)-oxetan-2-yl]methyl}-3H-imidazo[4,5-c]pyridin-6-yl}-4H-1,2,4-triazole-3-carbonitrile] | 0.0063 nM
Fc1cc(Cl)ccc1COc1cccc(C2CCN(Cc3nc4cc(-c5ccn[nH]5)ccc4n3C[C@@H]3CCO3)CC2)n1 [Compound 215a, 2-[(4-{6-[(4-chloro-2-fluorophenyl)methoxy]pyridin-2-yl}piperidin-1-yl)methyl]-1-{[(2S)-oxetan-2-yl]methyl}-5-(1H-pyrazol-5-yl)-1H-1,3-benzodiazole] | 2.7 nM
Cc1ccc(C(=O)Nc2ccc3c(c2)nc(CN2CCC(c4cccc(OCc5ccc(Cl)cc5F)n4)CC2)n3C[C@@H]2CCO2)cn1 [Compound 173a, N-{2-[(4-{6-[(4-chloro-2-fluorophenyl)methoxy]pyridin-2-yl}piperidin-1-yl)methyl]-1-{[(2S)-oxetan-2-yl]methyl}-1H-1,3-benzodiazol-5-yl}-6-methylpyridine-3-carboxamide] | 0.26 nM
O=C(O)c1c[nH]nc1-c1ccc2c(c1)nc(CN1CCC(c3cccc(OCc4ccc(Cl)cc4F)n3)CC1)n2C[C@@H]1CCO1 [Compound 214a, 3-{2-[(4-{6-[(4-chloro-2-fluorophenyl)methoxy]pyridin-2-yl}piperidin-1-yl)methyl]-1-{[(2S)-oxetan-2-yl]methyl}-1H-1,3-benzodiazol-5-yl}-1H-pyrazole-4-carboxylic acid] | 4.2 nM
C[C@]1(c2ccc(Cl)cc2F)Oc2cccc(C3CCN(Cc4nc5cc(-c6nnc(C#N)[nH]6)nnc5n4C[C@@H]4CCO4)CC3)c2O1 [Compound 448a, 5-[6-({4-[(2S)-2-(4-chloro-2-fluorophenyl)-2-methyl-2H-1,3-benzodioxol-4-yl]piperidin-1-yl}methyl)-7-{[(2S)-oxetan-2-yl]methyl}-7H-imidazo[4,5-c]pyridazin-3-yl]-4H-1,2,4-triazole-3-carbonitrile] | 0.011 nM
CO[C@H](C)Cn1c(CN2CCC(c3cccc4c3O[C@@](C)(c3ccc(Cl)cn3)O4)CC2)nc2cc(-c3nnc(C(F)(F)F)[nH]3)nnc21 [Compound 473a, 5-chloro-2-[(2S)-4-[1-({7-[(2R)-2-methoxypropyl]-3-[5-(trifluoromethyl)-4H-1,2,4-triazol-3-yl]-7H-imidazo[4,5-c]pyridazin-6-yl}methyl)piperidin-4-yl]-2-methyl-2H-1,3-benzodioxol-2-yl]pyridine] | 0.46 nM
Cc1nnc(-c2ccc3c(c2)nc(CN2CCC(c4cccc5c4OC(C)(c4ccc(Cl)cn4)O5)CC2)n3C[C@@H]2CCO2)[nH]1 (stereo partly drawn) [Compound 271a, 2-({4-[2-(5-chloropyridin-2-yl)-2-methyl-2H-1,3-benzodioxol-4-yl]piperidin-1-yl}methyl)-5-(5-methyl-4H-1,2,4-triazol-3-yl)-1-{[(2S)-oxetan-2-yl]methyl}-1H-1,3-benzodiazole] | 0.34 nM
C[C@]1(c2ccc(Cl)cc2F)Oc2cccc(C3CCN(Cc4nc5cc(-c6noc(=O)[nH]6)nnc5n4C[C@@H]4CCO4)CC3)c2O1 [Compound 348a, 3-[6-({4-[(2S)-2-(4-chloro-2-fluorophenyl)-2-methyl-2H-1,3-benzodioxol-4-yl]piperidin-1-yl}methyl)-7-{[(2S)-oxetan-2-yl]methyl}-7H-imidazo[4,5-c]pyridazin-3-yl]-4,5-dihydro-1,2,4-oxadiazol-5-one] | 0.062 nM
Cn1cc(-c2ccc3c(c2)nc(CN2CCC(c4cccc5c4OC(C)(c4ccc(Cl)cc4F)O5)CC2)n3C[C@@H]2CCO2)cn1 (stereo partly drawn) [Compound 233a, 2-((4-(2-(4-chloro-2-fluorophenyl)-2-methylbenzo[d][1,3]dioxol-4-yl)piperidin-1-yl)methyl)-5-(1-methyl-1H-pyrazol-4-yl)-1-(((S)-oxetan-2-yl)methyl)-1H-benzo[d]imidazole] | 4 nM
O=C(Nc1ccc2c(c1)nc(CN1CCC(c3cccc(OCc4ccc(Cl)cc4F)n3)CC1)n2C[C@@H]1CCO1)C1COCCC1(F)F (stereo partly drawn) [Compound 189a, N-{2-[(4-{6-[(4-chloro-2-fluorophenyl)methoxy]pyridin-2-yl}piperidin-1-yl)methyl]-1-{[(2S)-oxetan-2-yl]methyl}-1H-1,3-benzodiazol-5-yl}-4,4-difluorooxane-3-carboxamide] | 0.82 nM
Cc1cc(C(=O)Nc2ccc3c(c2)nc(CN2CCC(c4cccc(OCc5ccc(Cl)cc5F)n4)CC2)n3C[C@@H]2CCO2)nn1C [Compound 187a, N-{2-[(4-{6-[(4-chloro-2-fluorophenyl)methoxy]pyridin-2-yl}piperidin-1-yl)methyl]-1-{[(2S)-oxetan-2-yl]methyl}-1H-1,3-benzodiazol-5-yl}-1,5-dimethyl-1H-pyrazole-3-carboxamide] | 0.88 nM
CC1(c2ccc(Cl)cc2)Oc2cccc(C3CCN(Cc4nc5cc(-c6nnc(C(F)(F)F)[nH]6)ccc5n4C[C@@H]4CCO4)CC3)c2O1 (stereo partly drawn) [Compound 226a, 2-({4-[2-(4-chlorophenyl)-2-methyl-2H-1,3-benzodioxol-4-yl]piperidin-1-yl}methyl)-1-{[(2S)-oxetan-2-yl]methyl}-5-[5-(trifluoromethyl)-4H-1,2,4-triazol-3-yl]-1H-1,3-benzodiazole] | 0.13 nM
C[C@]1(c2ccc(Cl)cc2F)Oc2cccc(C3CCN(Cc4nc5cc(-c6nnc[nH]6)ncc5n4C[C@@H]4CCO4)CC3)c2O1 [Compound 440a, 4-[(2S)-2-(4-chloro-2-fluorophenyl)-2-methyl-2H-1,3-benzodioxol-4-yl]-1-[(3-{[(2S)-oxetan-2-yl]methyl}-6-(4H-1,2,4-triazol-3-yl)-3H-imidazo[4,5-c]pyridin-2-yl)methyl]piperidine] | 0.04 nM
C[C@]1(c2ccc(C#N)cc2F)Oc2cccc(C3CCN(Cc4nc5cc(-c6noc(=O)[nH]6)ncc5n4C[C@@H]4CCO4)CC3)c2O1 [Compound 433a, 3-fluoro-4-[(2S)-2-methyl-4-{1-[(3-{[(2S)-oxetan-2-yl]methyl}-6-(5-oxo-4,5-dihydro-1,2,4-oxadiazol-3-yl)-3H-imidazo[4,5-c]pyridin-2-yl)methyl]piperidin-4-yl}-2H-1,3-benzodioxol-2-yl]benzonitrile] | 0.013 nM
CC1(c2ccc(Cl)cc2)Oc2cccc(C3CCN(Cc4nc5cc(-c6nnc(C(F)(F)F)[nH]6)cnc5n4C[C@@H]4CCO4)CC3)c2O1 (stereo partly drawn) [Compound 225a, 4-[2-(4-chlorophenyl)-2-methyl-2H-1,3-benzodioxol-4-yl]-1-[(3-{[(2S)-oxetan-2-yl]methyl}-6-[5-(trifluoromethyl)-4H-1,2,4-triazol-3-yl]-3H-imidazo[4,5-b]pyridin-2-yl)methyl]piperidine] | 0.064 nM
CC1(c2ccc(Cl)cn2)Oc2cccc(C3CCN(Cc4nc5cc(-c6nnc(C7CC7)[nH]6)ncc5n4C[C@@H]4CCO4)CC3)c2O1 (stereo partly drawn) [Compound 266a, 5-chloro-2-[4-(1-{[6-(5-cyclopropyl-4H-1,2,4-triazol-3-yl)-3-{[(2S)-oxetan-2-yl]methyl}-3H-imidazo[4,5-c]pyridin-2-yl]methyl}piperidin-4-yl)-2-methyl-2H-1,3-benzodioxol-2-yl]pyridine] | 0.094 nM
CC1(c2ccc(Cl)cn2)Oc2cccc(C3CCN(Cc4nc5cc(-c6nnc(C7CC7)[nH]6)cnc5n4C[C@@H]4CCO4)CC3)c2O1 (stereo partly drawn) [Compound 268a, 5-chloro-2-[4-(1-{[6-(5-cyclopropyl-4H-1,2,4-triazol-3-yl)-3-{[(2S)-oxetan-2-yl]methyl}-3H-imidazo[4,5-b]pyridin-2-yl]methyl}piperidin-4-yl)-2-methyl-2H-1,3-benzodioxol-2-yl]pyridine] | 4.2 nM
O=C(O)CCc1ccc2c(c1)nc(CN1CC=C(c3cccc(OCc4ccc(Cl)cc4F)n3)CC1)n2C[C@@H]1CCO1 [Compound 113a, (S)-3-(2-((6-((4-chloro-2-fluorobenzyl)oxy)-3′,6′-dihydro-[2,4′-bipyridin]-1′(2′H)-yl)methyl)-1-(oxetan-2-ylmethyl)-1H-benzo[d]imidazol-5-yl)propanoic acid] | 38.2 nM
Fc1cc(Cl)ccc1COc1ncccc1C1=CCN(Cc2nc3cc(-c4nnc(C(F)(F)F)[nH]4)ccc3n2C[C@@H]2CCO2)CC1 [Compound 390a, 2-[(4-chloro-2-fluorophenyl)methoxy]-1′-[(1-{[(2S)-oxetan-2-yl]methyl}-5-[5-(trifluoromethyl)-4H-1,2,4-triazol-3-yl]-1H-1,3-benzodiazol-2-yl)methyl]-1′,2′,3′,6′-tetrahydro-3,4′-bipyridine] | 0.48 nM
O=C(CC(F)(F)F)Nc1ccc2c(c1)nc(CN1CCC(c3cccc(OCc4ccc(Cl)cc4F)n3)CC1)n2C[C@@H]1CCO1 [Compound 150a, N-{2-[(4-{6-[(4-chloro-2-fluorophenyl)methoxy]pyridin-2-yl}piperidin-1-yl)methyl]-1-{[(2S)-oxetan-2-yl]methyl}-1H-1,3-benzodiazol-5-yl}-3,3,3-trifluoropropanamide] | 0.61 nM
C[C@]1(c2ccc(Cl)cc2F)Oc2cccc(C3CCN(Cc4nc5cc(-c6noc(=O)[nH]6)ncc5n4C[C@@H]4CCO4)CC3)c2O1 [Compound 375a, 3-[2-({4-[(2S)-2-(4-chloro-2-fluorophenyl)-2-methyl-2H-1,3-benzodioxol-4-yl]piperidin-1-yl}methyl)-3-{[(2S)-oxetan-2-yl]methyl}-3H-imidazo[4,5-c]pyridin-6-yl]-4,5-dihydro-1,2,4-oxadiazol-5-one] | 0.0063 nM
